Laboratory results from ChEMBL document CHEMBL1155604, “New norditerpenoid alkaloids from Aconitum falconeri” (J Nat Prod, 2000).
Active and inactive are the calls of the source. The calls are words filed in the database; no cut-off is given here.

Assays:
Electrophorus electricus = assay: (§1) Inhibition of electric eel acetylcholinesterase type VI-S after 30 mins by modified Ellman's assay
[1] = as §1; set-up: species or system Electrophorus electricus

Row | SMILES | Activity (Electrophorus electricus) | IC50 [1] [µM]
1 | CCO[C@]12C[C@H](OC)[C@@]3(O)C[C@H]([C@@H]1[C@H]3OC(=O)c1ccc(OC)c(OC)c1)[C@@]13C4[C@@H]2[C@H](OC)[C@@H]1[C@](COC)(CN4CC)[C@H](O)C[C@@H]3OC | inactive | 
2 | COC[C@]12CN(C=O)C3[C@@H]4[C@H](OC)[C@H]1[C@@]3([C@@H](OC)C[C@H]2O)[C@@H]1C[C@]2(O)[C@@H](OC)C[C@@]4(OC(C)=O)[C@H]1[C@H]2OC(=O)c1ccc(OC)c(OC)c1 [FALEOCONITINE] |  | 293
3 | CCN1C[C@]2(COC)[C@H](O)C[C@H](OC)[C@]34C1[C@H]([C@H](OC)[C@H]23)[C@@]1(OC(C)=O)C[C@H](OC)[C@@]2(O)C[C@@H]4[C@@H]1[C@H]2OC(=O)c1ccc(OC)c(OC)c1 [PSEUDACONITINE] |  | 278
